Consider 4 compounds from patent US12215389B2, “Compositions for detecting epigenetic modifications” (EXACT SCIENCES CORPORATION, priority 2007, dated 2025).

For data set [1], the system named is methylated gene promoters in plasma DNA. The experiment in a line: Real-time MSP on plasma DNA. Also on record: species or system human. The following applies: for % Specificity (all 59 controls), plasma set 1: plasma training set 1. How it is done: 10 ml of blood was obtained per individual using EDTA Vacutainer™ tubes. Individuals with no suspicious findings, adenomas or carcinomas based on colonoscopy were enrolled in the present study. Within 4 hrs from the blood drawing, the plasma fraction was separated from the cell fraction by centrifugation at 1500 g for 15 min (4° C.). The plasma was transferred to new tubes and once again centrifuged (1500 g, 15 min, 4° C.), after which the supernatant was transferred to new tubes and stored at −80° C. until further use. Samples were shipped on dry ice.
DNA isolation from plasma samples (1.2 to 6 ml) was performed using an upscaled phenol-chloroform DNA isolation method using the 15 ml of Heavy Phase lock Gel tubes (PLG tubes) (Eppendorf, cat #0032 005.152) or alternatively the ChargeSwitch® gDNA 1 ml serum kit from Invitrogen (cat #CS11040).
Plasma samples were thawed and 1/10 volume of 10× buffer (240 mM EDTA (pH=8.0), 750 mM NaCl), 1/10 volume of 10% SDS and 5 μl of Proteinase K (20 mg/ml stock solution) per 1 ml of sample (e.g. 15 μl for 3 ml of sample) was added to each plasma sample. This mixture was incubated overnight at 48° C. at constant shaking (200 RPM).
Subsequently the PLG tube was centrifuged at 2500 RCF for 3 min, sample mixture and approximately the same volume of phenol/chloroform (Invitrogen, cat #15593049) were added to it. This solution was briefly vortexed, mixed for 10 min using a tube rocker at room temperature and centrifuged for 5 min at 2500 RCF. In case the retrieved sample volume was ≤4 ml, an equal volume of phenol/chloroform was added. The upper aqueous layer was phenol/chloroform-treated for a second time.
DNA was precipated from the upper aqueous layer by adding 5 μl glycogen, 1/10 volume of 7.5 M Ammonium Acetate and 2-2.5 volumes of cold (−20° C.) 100% ethanol. Tubes were gently inverted and incubated at −20° C. for at least 1 h, followed by a centrifugation step at 17000 RCF for 30 min (4° C.). Ethanol was carefully removed by pipetting. Pellets were washed with 2 ml freshly prepared 70% ethanol, vortexed gently and submitted to a centrifugation step at 17000 RCF for 15 min at 4° C. After careful removal of the remaining ethanol, pellets were air dried and resuspended in 45 μl of LoTE pH 8.0. The isolated DNA is stored at −80° C. until further processing.
The complete content of DNA isolated in above procedure was subjected to sodium bisulfite treatment (BT) using the EZ-96 DNA Methylation kit from Zymo Research (Cat #D5003) performed on a pipetting robot (Tecan Freedom EVOII, Roma, Liha, Mca, Te-Vacs). Briefly, 45 μl of plasma DNA sample was mixed with 5 μl of M-Dilution Buffer (provided in kit) and incubated at 37° C. for 15 min shaking at 1100 RPM. This mixture was further incubated with 100 μl of diluted CT conversion reagent (provided in kit) shaking at 70° C. for 3 hours (protected from light). Subsequently the modified DNA was desalted and desulfonated according to manufacturer's instructions and eluted in either 40 μl or 20 μl of Tris-HCl 1 mM pH8.0, depending on the applied concentration procedure. The eluted material was stored at −80° C. until further processing.
2.4 μl of the modified DNA was added to a PCR mix (total volume 12 μl) containing home-made buffer solution (final concentrations are summarized: 16.6 mM (NH4)2SO4, 67 mM Tris (pH 8.8), 6.7 mM MgCl2, 10 mM β-mercaptoethanol), dNTPs (5 mM; Amersham Biosciences cat #27-2035-02), methylation specific forward primer (6 ng), methylation specific reverse primer (18 ng), molecular beacon (0.16 μM) and Jumpstart DNA Taq polymerase (0.4 units; Sigma Cat #D9307).
A standard curve was included (9.6×10^5—9.6 copies) to determine copy numbers of unknown samples by interpolation of their Ct values to the standard curve.
DNA was isolated following the upscaled phenol-chloroform procedure; subsequently the whole DNA sample was modified as described above.

Data set [2] relates to methylated gene promoters in FFPE tissue DNA. The experiment in a line: Real-time MSP on colon tissue samples. Also on record: species or system human. Here is the method: Real-time MSP was applied on a 7900HT fast real-time PCR system (Applied Biosystems). 2.4 μl of the modified DNA (equivalent to 2.5 μg unconverted DNA) was added to a PCR mix (total volume 12 μl) containing buffer (16.6 mM (NH4)2SO4, 67 mM Tris (pH 8.8), 6.7 mM MgCl2, 10 mM β-mercaptoethanol), dNTPs (5 mM), forward primer (6 ng), reverse primer (18 ng), molecular beacon (0.16 μM), BSA (0.1 μg), and Jumpstart DNA Taq polymerase (0.4 units; Sigma Aldrich). Cycle program used was as follows: 5 minutes 95° C., followed by 45 cycles of 30 seconds 95° C., 30 seconds 57° C. (51° C. for APC), and 30 seconds 72° C., followed by 5 minutes 72° C. A standard curve (2×106—20 copies) was included to determine copy numbers of unknown samples by interpolation of their Ct values to the standard curve.
Marker selection in colon tissue: Based on re-expression, 224 different gene assays representing 145 gene promotors were tested on the Base5 methylation profiling platform (data not shown, see reference 1 for details). The 37 most differentially methylated gene sequences assessing 29 gene promoters were validated on retrospectively collected tumors from 65 colorectal cancer patients (all stages) and 74 distant resection ends (histopathologically normal) using real-time MSP. Several markers reliably detected CRC in those tissue samples (data not shown). The results were confirmed on an independent test set containing 39 tissue controls (non-cancerous), 34 carcinomas and 16 adenomas. Several combinations of the tested markers reliably detected CRC with high specificity and sensitivity.
The ten best performing markers GATA5, GATA4, SFRP1, SFRP2, APC, MGMT, NDRG4, OSMR, JPH3 and ADAM23 were validated with primer sets and beacon probes as specified in Table 24. In addition to the colon test genes, the independent reference gene β-Actin (ACT) was also measured. The ratios between the colon test genes and ACT were calculated, and are the test result of the assay.
Marker candidates identified by re-expression were screened using 37 real-time methylation specific PCR (real-time MSP) assays. These assays were used to assess the methylation status of 29 gene promoters in 293 formalin-fixed paraffin-embedded (FFPE) tissue samples collected from various clinics. Samples included 99 carcinomas of various stages, 16 adenomas, 63 samples from patients with cancer other than CRC (20 breast [stages I-III], 22 bladder [stages I-III], 21 lung [stages I and II]), 39 samples from patients with no evidence of cancer and 76 distant resection ends (histopathologically normal) from CRC patients. These samples were divided into training and independent test sets, and used to select the gene methylation assays best able to discriminate between cancerous and non-cancerous samples. The training set included retrospectively collected tumors from 65 colorectal cancer patients (all stages) and 74 distant resection ends. Using the 10 best performing genes the results were confirmed on an independent test set containing 59 samples from patients with cancer other than CRC, 39 non-cancerous controls and 50 cancer cases (34 carcinomas and 16 adenomas).
The individual performance of the 10 best performing tissue markers OSMR, SFRP1, GATA4, SFRP2, NDRG4, ADAM23, GATA5, MGMT, APC and JPH3 is shown in FIG. 7, when the analytical cut-off was set to give 100% specificity, except for JPH3 where a specificity of 95% was obtained (based on the 39 non-cancerous controls). In addition to the colon test genes, the independent reference gene β-Actin (ACT) was also measured. The ratios between the colon test genes and ACT were calculated, and are the test result of the assay.

Data set [3] relates to tumor endothelial cells. To be noted: DAC and TSA together, Hellebrekers, Melotte et al. 2007; cited from earlier work.
In data set [4] the test system is NDRG1 expression in cancer cells. To be noted: Guan et al. 2000, Bandyopadhyay et al. 2004; cited from earlier work.
The test system of data set [5] is NDRG4 expression in RKO and HCT116 cell lines. The experiment in a line: NDRG4 re-expression by real-time RT-PCR after treatment with DAC and TSA. In kind it is cell-based, human. To be noted: combined treatment, 1 μM DAC and 300 nM TSA, cyclophilin reference gene. Here is the method:
Colon cancer cell lines LS174T, HCT116, HT29, RKO, CaCo2, Colo205, SW48 and SW480 were used for MSP, bisulfite sequencing and real time (reexpression) RT-PCR ([…] and 300 nM TSA).
Total RNA isolation was isolated by use of the Rneasy Mini kit (Qiagen) cDNA synthesis using the Iscript cDNA synthesis kit (Bio-Rad). Quantitative real-time reverse transcription-PCR was done using SYBR Green PCR Master Mix (Applied Biosystems, Nieuwekerk a/d IJssel, the Netherlands). Primers and PCR conditions are specified in Table 21.
Expression of the NDRG4 gene was determined by real-time reverse-transcription PCR (RT-PCR). […] Relative expression of NDRG4 after treatment with DAC and TSA was compared to untreated cell lines. Cyclophilin was used as a reference gene for expression normalisation.
A general note: Real-time PCR tracks product formation cycle by cycle.

The subject of data set [6] is NDRG4 mRNA in CRC cell lines HCT116 and RKO. Nature of the data set: NDRG4 reexpression following inhibition of DNA methyltransferases (quantitative RT-PCR). The following applies: 1 μM DAC. It counts as cell-based, human. Here is the method:
CRC cell lines HT29, SW480, Caco2, Colo205, RKO, LS174T, HCT116 and SW480 were cultured in DMEM (Invitrogen) supplemented with 10% heat-inactivated fetal calf serum (Hyclone). To investigate reexpression of NDRG4 following inhibition of DNA methyltransferases, HCT116 and RKO were treated with 1 μM DAC (Sigma).
Total RNA from cell lines, normal mucosa and tumor tissue was isolated using the Rneasy Mini kit (Qiagen) following the manufacturers instructions. Possible genomic DNA contaminations were removed by DNAse treatment with the RNase-free DNAse set (Qiagen). cDNA synthesis using the Iscript cDNA synthesis kit (Bio-Rad) was performed. Quantitative real-time (RT-PCR) was performed using SYBR Green PCR master mix (Applied Biosystems, Nieuwekerk a/d IJssel, The Netherlands). Realtime RT-PCR mixes were composed of 1× iQ SYBR Green Supermix (Bio-Rad), 400 nM of the forward (SEQ ID NO: 3 5′-[…]-3′) and reverse (SEQ ID NO: 4 5′-[…]-3′) primer and cDNA corresponding to 30 ng total RNA per reaction. As standard control, primers targeted against cyclophilin A were used. Reactions were run using the iCycler (Bio-Rad) for 40 cycles at a Tm of 60° C. The comparative Ct method was used to calculate differences in mRNA expression. […] Next, the fold difference in expression was calculated as 2-^[delta][delta]Ct, with [delta][delta]Ct=[delta]Ct,sample1-[delta]Ct,control. […]

Setting [7] is: 16 adenoma tissue samples vs 39 controls.
The mark [8] stands for this setting: 34 carcinoma tissue samples vs 39 controls.

In the case of “SFRP2 (DNA GGGTCGGAGTTTTTCGGAGTTGCGC; listed as DNA, chemistry not given here)”, in data set [1], the “% Specificity (all 59 controls), plasma set 1” value is listed as 97%. Besides, the Sensitivity in data set [2] (setting [7]) is listed as 81%; in data set [2] (setting [8]), 68%. Also, the Specificity in data set [2] (setting [7]) and in data set [2] (setting [8]) was 100% throughout. Besides, in data set [2] (50 cases (adenoma + carcinoma) vs 39 controls, tissue), the “Specificity (%)” value is listed as 100%. Besides, the “Sensitivity (%)” value in data set [2] (50 cases (adenoma + carcinoma) vs 39 controls, tissue, first cut off ratio) is reported as 72%; in data set [2] (50 cases (adenoma + carcinoma) vs 39 controls, tissue, second cut off ratio, between ( )) it was “(84) %”.
With “OSMR (DNA TTTGGTCGGGGTAGGAGTAGC; listed as DNA, chemistry not given here)”, in data set [1], the “% Specificity (all 59 controls), plasma set 1” value worked out at 100%. Moreover, in data set [1] (plasma training set 2), the “% Sensitivity adenomas plasma set 2: increased plasma equivalent of DNA per real-time MSP assay” value came to 2% and the “% Specificity (all 89 controls), plasma set 2: increased plasma equivalent of DNA per real-time MSP assay” value is given as 99%.
For the compound `Nc1ncn([C@H]2C[C@H](O)[C@@H](CO)O2)c(=O)n1` [DAC, 5-aza-2′-deoxycytidine], the “81 genes downregulated in tumor endothelial cells after DAC and TSA treatment” value in data set [3] was “reexpressed”. The “Expression of NDRG1 after DAC treatment” value in data set [4] is reported as “upregulated”. Also, the “Relative expression of NDRG4 after treatment with DAC and TSA compared to untreated cell lines” value in data set [5] is “reactivation of NDRG4 expression”. The “Endogenous NDRG4 mRNA levels after treatment with DAC” value in data set [6] was “significant increased”.
`CC(/C=C/C(=O)NO)=C\[C@@H](C)C(=O)c1ccc(N(C)C)cc1` [TSA, trichostatin A]: in data set [3], the “81 genes downregulated in tumor endothelial cells after DAC and TSA treatment” value was “reexpressed”. The “Relative expression of NDRG4 after treatment with DAC and TSA compared to untreated cell lines” value in data set [5] is given as “reactivation of NDRG4 expression”.
